What all share (type): physicochemical
A short description of data set [1]: Dissolution rate test in octyl dodecanol. The note with it: 4.0 g powder in 96.0 g octyl dodecanol, stirring, 25° C., visual inspection. As for the experimental part:
Description of dissolution rate test. 4.0 g of powder was dispersed under stirring in 96.0 g of octyl dodecanol solvent at 25° C. The total dissolution time was measured, with visual inspection, noting the time of complete disappearance of any heterogeneity in the form of particles or opalescence in the solution.

A short description of data set [2]: Dissolution rate test in caprylic/capric triglyceride. The note with it: 4.0 g powder in 96.0 g caprylic/capric triglyceride, stirring, 25° C., visual inspection. The procedure:
Description of dissolution rate test. 4.0 g of powder was dispersed under stirring in 96.0 g of caprylic/capric triglyceride solvent at 25° C. The total dissolution time was measured, with visual inspection, noting the time of complete disappearance of any heterogeneity in the form of particles or opalescence in the solution.

Data set [3] in a line: Dissolution rate test in ethylhexyl stearate. The note with it: 4.0 g powder in 96.0 g ethylhexyl stearate, stirring, 25° C., visual inspection. As for the experimental part: Description of dissolution rate test. 4.0 g of powder was dispersed under stirring in 96.0 g of ethylhexyl stearate solvent at 25° C. The total dissolution time was measured, with visual inspection, noting the time of complete disappearance of any heterogeneity in the form of particles or opalescence in the solution.

A short description of data set [4]: Stability of the amorphous solid form by DSC. The conditions noted are these: for solid form stability by DSC: DSC technique. As for the experimental part:
Samples 1C and 1A were characterised by the differential scanning calorimetry (DSC) technique. […] The amorphous solid sample 1A according to the present invention presented a first exothermic transition (corresponding to a formation of crystalline form) at temperatures of between 50 and 90° C., and subsequently at 128° C., the endothermic transition corresponding to melting of the crystalline form that formed at lower temperatures.
Sample 1A was stored for 12 months at room temperature and subjected to a second DSC measurement. Its appearance was still that of a white powder.

From patent publication US20140147397A1, “STABLE AMORPHOUS SOLID FORM OF A TRIAZINE DERIVATIVE AND THE CORRESPONDING MANUFACTURING PROCESS” (3V SIGMA S.P.A., priority 2012, published 2014) come the findings set out here.

As to `CCCCC(CC)COC(=O)c1ccc(Nc2nc(Nc3ccc(C(=O)OCC(CC)CCCC)cc3)nc(Nc3ccc(C(=O)OCC(CC)CCCC)cc3)n2)cc1` (stereo not drawn) [Sample 1A], the dissolution time came out at 90 min in data set [1], 15 min in data set [2] and 40 min in data set [3]. Further, the “DSC curve after storage (stability of amorphous form)” value in data set [4] (stored for 12 months at room temperature, second DSC measurement) is “identical to the curve obtained a year earlier”.
Turning to `CCCCC(CC)COC(=O)c1ccc(Nc2nc(Nc3ccc(C(=O)OCC(CC)CCCC)cc3)nc(Nc3ccc(C(=O)OCC(CC)CCCC)cc3)n2)cc1` (stereo not drawn) [Sample 1C, reference compound], the figures for the dissolution time result in data set [1], in data set [2] and in data set [3] were “over 420 minutes (insoluble-opaque white dispersion)”, “over 90 minutes” and “over 420 minutes (opaque white dispersion)”, respectively.
As to `CCCCC(CC)COC(=O)c1ccc(Nc2nc(Nc3ccc(C(=O)OCC(CC)CCCC)cc3)nc(Nc3ccc(C(=O)OCC(CC)CCCC)cc3)n2)cc1` (stereo not drawn) [Sample 2A], the dissolution time in data set [2] was determined as 15 min. The “solid form stability by DSC” value in data set [4] was “stable amorphous form”.
As to `CCCCC(CC)COC(=O)c1ccc(Nc2nc(Nc3ccc(C(=O)OCC(CC)CCCC)cc3)nc(Nc3ccc(C(=O)OCC(CC)CCCC)cc3)n2)cc1` (stereo not drawn) [Sample 2C, reference compound], the dissolution time entry in data set [2] was “over 90 minutes”.
The molecule `CCCCC(CC)COC(=O)c1ccc(Nc2nc(Nc3ccc(C(=O)OCC(CC)CCCC)cc3)nc(Nc3ccc(C(=O)OCC(CC)CCCC)cc3)n2)cc1` (stereo not drawn) [Sample 3A] gave a dissolution time in data set [2] of 15 min. Moreover, in data set [4], the “solid form stability by DSC” value is “stable amorphous form”.
